IC50 data for 44 molecules are collected here from patent US7173004B2, “Macrocyclic isoquinoline peptide inhibitors of hepatitis C virus” (Bristol-Myers Squibb Company, priority 2003, dated 2007).

What is called IC50 is the point on the concentration scale where inhibition reaches its midpoint.

Each structure is given as a SMILES string.

The assay addresses T1, HCV NS3/4A protease complex, BMS strain (genotype 1a) (UniProt P27958, C1454S/C1711G, species not given/STRAIN_BMS).
T1 construct: b1001: DNA encoding the recombinant HCV NS3/4A protease complex (amino acids 1027 to 1711) ... a three-lysine solubilizing tail was added at the 3′-end of the NS4A coding region; fused on or other part: Three-lysine solubilising tail at the C-terminus of NS4A; A His tag is implied by the pET21b vector and Ni-NTA purification
In words: Recombinant HCV NS3/4A protease complex FRET peptide assay, BMS strain. Type of assay: biochemical. The following applies: NS3/4A BMS strain; activity range symbols. In a few lines: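 Recombinant NS3/4A (aa 1027–1711) from H77C, J4L6S or BMS strains, with C1454S and C1711G mutations and three-lysine tail, expressed in E. coli and Ni-NTA/gel-filtration purified to >90%. Inhibition of cleavage of a FRET peptide substrate measured.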
Consider `COc1ccc2c(O[C@@H]3C[C@H]4C(=O)N[C@]5(C(=O)NS(=O)(=O)C6CC6)C[C@H]5/C=C\CCCSC(C)(C)[C@H](NC(=O)OC(C)(C)C)C(=O)N4C3)nccc2c1` [Compound 80, (1S,4R,6S,14R,18R)-[7-cis-4-Cyclopropanesulfonylaminocarbonyl-13,13-dimethyl-18-(6-methoxyisoquinolin-1-yloxy)-2,15-dioxo-12-thia-3,16-diaza-tricyclo[14.3.0.0^4,6]nonadec-7-en-14-yl]carbamic acid, tert-butyl ester], for which the IC50 is less than 50 nM. Regarding `COc1ccc2c(OC3CC4C(=O)NC5(C(=O)NS(=O)(=O)C6CC6)CC5C=CCCCSC(C)(C)C(NC(=O)NC(C)(C)C)C(=O)N4C3)nccc2c1` (centres unmarked) [Compound 81], the IC50 was less than 50 nM. For `COc1ccc2c(OC3CC4C(=O)NC5(C(=O)NS(=O)(=O)C6CC6)CC5C=CCCCSC(C)(C)C(NC(=O)NC5CCCC5)C(=O)N4C3)nccc2c1` (centres unmarked) [Compound 82], the concentration for half-maximal inhibition (IC50) was less than 50 nM. On to `COc1ccc2c(OC3CC4C(=O)NC5(C(=O)NS(=O)(=O)C6CC6)CC5C=CCCCSC(C)(C)C(N)C(=O)N4C3)nccc2c1` (centres unmarked) [Compound 83], for which the IC50 was in the range of 500 to 5000 nM. With `COc1ccc2c(O[C@@H]3C[C@H]4C(=O)N[C@]5(C(=O)NS(=O)(=O)C6CC6)C[C@H]5/C=C\CCCOC[C@H](NC(=O)OC(C)(C)C)C(=O)N4C3)nccc2c1` [Compound 85, (1S,4R,6S,14S,18R)-[7-cis-4-Cyclopropanesulfonylaminocarbonyl-18-(6-methoxy-isoquinolin-1-yloxy)-2,15-dioxo-12-oxa-3,16-diaza-tricyclo[14.3.0.0^4,6]nonadec-7-en-14-yl]-carbamic acid, tert-butyl ester], the IC50 was less than 50 nM. The value for `COc1ccc2c(OC3CC4C(=O)NC5(C(=O)NS(=O)(=O)C6CC6)CC5C=CCCCOCC(NC(=O)NC(C)(C)C)C(=O)N4C3)nccc2c1` (centres unmarked) [Compound 86] was less than 50 nM; that for `COc1ccc2c(OC3CC4C(=O)NC5(C(=O)NS(=O)(=O)C6CC6)CC5C=CCCCOCC(NC(=O)NC5CCCC5)C(=O)N4C3)nccc2c1` (centres unmarked) [Compound 87] was less than 50 nM. For `COc1ccc2c(OC3CC4C(=O)NC5(C(=O)NS(=O)(=O)C6CC6)CC5C=CCCCOCC(NC(=O)OCC(C)(C)C)C(=O)N4C3)nccc2c1` (centres unmarked) [Compound 88] the value was less than 50 nM. Consider `COc1ccc2c(OC3CC4C(=O)NC5(C(=O)NS(=O)(=O)C6CC6)CC5C=CCCCOCC(NC(=O)OC(C)C)C(=O)N4C3)nccc2c1` (centres unmarked) [Compound 89], for which the IC50 is less than 50 nM.

As for `COc1ccc2c(OC3CC4C(=O)NC5(C(=O)NS(=O)(=O)C6CC6)CC5C=CCCCOCC(NC(=O)OC5CCCC5)C(=O)N4C3)nccc2c1` (centres unmarked) [Compound 90], the IC50 was less than 50 nM. Take `COc1ccc2c(OC3CC4C(=O)NC5(C(=O)NS(=O)(=O)C6CC6)CC5C=CCCCOCC(NC(=O)NC(C)(C)C)C(=O)N4C3)nc(-c3ccccc3)cc2c1` (centres unmarked) [Compound 92]: the IC50 was less than 50 nM.

For the molecule `COc1ccc2c(OC3CC4C(=O)NC5(C(=O)NS(=O)(=O)C6CC6)CC5C=CCCCOCC(NC(=O)N5CCCC5)C(=O)N4C3)nc(-c3ccccc3)cc2c1` (centres unmarked) [Compound 93], the IC50 was less than 50 nM. Take `COc1ccc2c(OC3CC4C(=O)NC5(C(=O)NS(=O)(=O)C6CC6)CC5C=CCCCOCC(NC(=O)OC5CCCC5)C(=O)N4C3)nc(-c3ccccc3)cc2c1` (centres unmarked) [Compound 94]: the IC50 is less than 50 nM. For `COc1ccc2c(OC3CC4C(=O)NC5(C(=O)NS(=O)(=O)C6CC6)CC5C=CCCCOCC(NC(=O)OCC(C)(C)C)C(=O)N4C3)nc(-c3ccccc3)cc2c1` (centres unmarked) [Compound 95] the value was less than 50 nM; for `COc1ccc2c(OC3CC4C(=O)NC5(C(=O)NS(=O)(=O)C6CC6)CC5C=CCCCOCC(NC(=O)OC(C)C)C(=O)N4C3)nc(-c3ccccc3)cc2c1` (centres unmarked) [Compound 96], less than 50 nM. Take `COc1ccc2c(OC3CC4C(=O)NC5(C(=O)NS(=O)(=O)C6CC6)CC5C=CCOCCCC(NC(=O)OC(C)C)C(=O)N4C3)nc(-c3ccccc3)cc2c1` (centres unmarked) [Compound 98]: the IC50 was less than 50 nM.

As to `COc1ccc2c(OC3CC4C(=O)NC5(C(=O)NS(=O)(=O)C6CC6)CC5C=CCOCCCC(NC(=O)OC5CCCC5)C(=O)N4C3)nc(-c3ccccc3)cc2c1` (centres unmarked) [Compound 99], the IC50 is less than 50 nM. For the molecule `COc1ccc2c(OC3CC4C(=O)NC5(C(=O)NS(=O)(=O)C6CC6)CC5C=CCOCCCC(NC(=O)N5CCCC5)C(=O)N4C3)nc(-c3ccccc3)cc2c1` (centres unmarked) [Compound 100], the IC50 was less than 50 nM.

Consider `COc1ccc2c(OC3CC4C(=O)NC5(C(=O)NS(=O)(=O)C6CC6)CC5C=CCOCCCC(NC(=O)NC(C)(C)C)C(=O)N4C3)nc(-c3ccccc3)cc2c1` (centres unmarked) [Compound 102], for which the IC50 is less than 50 nM. Take `COc1ccc2c(OC3CC4C(=O)NC5(C(=O)NS(=O)(=O)C6CC6)CC5C=CCOCCCC(NC(=O)OCC(C)(C)C)C(=O)N4C3)nc(-c3ccccc3)cc2c1` (centres unmarked) [Compound 103]: the IC50 is less than 50 nM.

With `COc1ccc2c(OC3CC4C(=O)NC5(C(=O)NS(=O)(=O)C6CC6)CC5C=CCOCCCC(NC(=S)NC5CC5)C(=O)N4C3)nc(-c3ccccc3)cc2c1` (centres unmarked) [Compound 104], the IC50 is less than 50 nM. In the case of `COc1ccc2c(OC3CC4C(=O)NC5(C(=O)NS(=O)(=O)C6CC6)CC5C=CCOCCCC(NC(=O)Nc5ccc(C#N)cc5)C(=O)N4C3)nc(-c3ccccc3)cc2c1` (centres unmarked) [Compound 105], the IC50 was less than 50 nM. The value for `COc1ccc2c(OC3CC4C(=O)NC5(C(=O)NS(=O)(=O)C6CC6)CC5C=CCOCCCC(NC(=O)N5CCNC5=O)C(=O)N4C3)nc(-c3ccccc3)cc2c1` (centres unmarked) [Compound 106] was less than 50 nM; that for `COc1ccc2c(OC3CC4C(=O)NC5(C(=O)NS(=O)(=O)C6CC6)CC5C=CCCCOCC(NC(=O)NC(C)(C)C)C(=O)N4C3)nc(-c3ccc(N(C)C)cc3)cc2c1` (centres unmarked) [Compound 108] was less than 50 nM; that for `COc1ccc2c(OC3CC4C(=O)NC5(C(=O)NS(=O)(=O)C6CC6)CC5C=CCCCOCC(NC(=O)OC(C)C)C(=O)N4C3)nc(-c3ccc(N(C)C)cc3)cc2c1` (centres unmarked) [Compound 109] was less than 50 nM. Turning to `COc1ccc2c(OC3CC4C(=O)NC5(C(=O)NS(=O)(=O)C6CC6)CC5C=CCCCOCC(NC(=O)OC5CCCC5)C(=O)N4C3)nc(-c3ccc(N(C)C)cc3)cc2c1` (centres unmarked) [Compound 110], the IC50 was less than 50 nM. For `COc1ccc2c(OC3CC4C(=O)NC5(C(=O)NS(=O)(=O)C6CC6)CC5C=CCCCOCC(NC(=O)N5CCCC5)C(=O)N4C3)nc(-c3ccc(N(C)C)cc3)cc2c1` (centres unmarked) [Compound 111] the value was less than 50 nM; for `CNc1ccc(-c2cc3cc(OC)ccc3c(OC3CC4C(=O)NC5(C(=O)NS(=O)(=O)C6CC6)CC5C=CCOCCCC(NC(=O)OC(C)(C)C)C(=O)N4C3)n2)cc1` (centres unmarked) [Compound 113], less than 50 nM.

Consider `COc1ccc2c(OC3CC4C(=O)NC5(C(=O)NS(=O)(=O)C6CC6)CC5C=CCOCCCC(NC(=O)OC(C)(C)C)C(=O)N4C3)nc(-c3ccc(N(C)C=O)cc3)cc2c1` (centres unmarked) [Compound 114], for which the IC50 was less than 50 nM. In the case of `COc1ccc2c(OC3CC4C(=O)NC5(C(=O)NS(=O)(=O)C6(C)CC6)CC5C=CCCCSCC(NC(=O)OC(C)(C)C)C(=O)N4C3)nccc2c1` (centres unmarked) [Compound 115], the IC50 was less than 50 nM. In the case of `COc1ccc2c(OC3CC4C(=O)NC5(C(=O)NS(=O)(=O)C6CC6)CC5C=CCCCSCC(N)C(=O)N4C3)nccc2c1` (centres unmarked) [Compound 117], the IC50 lay in the range of 50 to 500 nM.

As for `CCSC(=O)NC1CCCCCC=CC2CC2(C(=O)NS(=O)(=O)C2CC2)NC(=O)C2CC(Oc3nccc4ccccc34)CN2C1=O` (centres unmarked) [Compound 118], the IC50 is less than 50 nM.

`O=CNC1CCCCCC=CC2CC2(C(=O)NS(=O)(=O)C2CC2)NC(=O)C2CC(Oc3nccc4ccccc34)CN2C1=O` (centres unmarked) [Compound 119]: the IC50 is less than 50 nM.

`CCC1(S(=O)(=O)NC(=O)C23CC2C=CCCCSCC(NC(=O)OC(C)(C)C)C(=O)N2CC(Oc4nccc5cc(OC)ccc45)CC2C(=O)N3)CC1` (centres unmarked) [Compound 121]: the IC50 is less than 50 nM.

`CC1(COC(=O)NC2CCCCCC=CC3CC3(C(=O)NS(=O)(=O)C3CC3)NC(=O)C3CC(Oc4nccc5ccccc45)CN3C2=O)CC1` (centres unmarked) [Compound 122]: the IC50 was less than 50 nM. In the case of `CC(=O)C(C)(C)OC(=O)NC1CCCCCC=CC2CC2(C(=O)NS(=O)(=O)C2CC2)NC(=O)C2CC(Oc3nccc4ccccc34)CN2C1=O` (centres unmarked) [Compound 123], the IC50 was less than 50 nM. For `CC(C)(OC(=O)NC1CCCCCC=CC2CC2(C(=O)NS(=O)(=O)C2CC2)NC(=O)C2CC(Oc3nccc4ccccc34)CN2C1=O)C(Cl)(Cl)Cl` (centres unmarked) [Compound 124] the value was less than 50 nM; for `CCC(C)(C)OC(=O)NC1CCCCCC=CC2CC2(C(=O)NS(=O)(=O)C2CC2)NC(=O)C2CC(Oc3nccc4ccccc34)CN2C1=O` (centres unmarked) [Compound 125], less than 50 nM.

For `CC(C)(C)NC(=O)N[C@H]1CCCCC/C=C\[C@@H]2C[C@@]2(C(=O)NS(=O)(=O)C2CC2)NC(=O)[C@@H]2C[C@@H](Oc3nccc4ccccc34)CN2C1=O` [Compound 126], the IC50 is less than 50 nM. The value for `O=C(NC1CCCC1)NC1CCCCCC=CC2CC2(C(=O)NS(=O)(=O)C2CC2)NC(=O)C2CC(Oc3nccc4ccccc34)CN2C1=O` (centres unmarked) [Compound 127] was less than 50 nM; that for `CC(C)NC(=O)NC1CCCCCC=CC2CC2(C(=O)NS(=O)(=O)C2CC2)NC(=O)C2CC(Oc3nccc4ccccc34)CN2C1=O` (centres unmarked) [Compound 128] was less than 50 nM; that for `CC(C)(C)CC(C)(C)NC(=O)NC1CCCCCC=CC2CC2(C(=O)NS(=O)(=O)C2CC2)NC(=O)C2CC(Oc3nccc4ccccc34)CN2C1=O` (centres unmarked) [Compound 129] was less than 50 nM. For `CC(C)(C)OC(=O)NC1CCCCCC=CC2CC2(C(=O)NS(=O)(=O)C2CC2)NC(=O)C2CC(Oc3nccc4c(Cl)cccc34)CN2C1=O` (centres unmarked) [Compound 130] the value was less than 50 nM; for `COc1ccc2c(OC3CC4C(=O)NC5(C(=O)NS(=O)(=O)C6CC6)CC5C=CCCCCCC(NC(=O)OC(C)(C)C)C(=O)N4C3)nccc2c1F` (centres unmarked) [Compound 132], less than 50 nM.
